Data reported in patent publication US12534487B2, “Compounds for use as iron(III) MRI contrast agents” (The Research Foundation for The State University of New York, priority 2017, dated 2026).
Values belong to the molecule of their own block, whether it stands above or below them.

Experiments:
[1] = stated in text without conditions; cited from earlier work
[2] = Benzoate oxidation with peroxide and ascorbate (ROS production); conditions: 50 μM complex, 50 μM H2O2, 50 μM ascorbate, pH 7.2; [Fe(EDTA)]− oxidation set at 100%
Procedure: Benzoate oxidation with 50 μM complex, 50 μM H2O2 and 50 μM ascorbate at pH 7.2. [Fe(EDTA)]^− oxidation is set at 100%.
It is desirable that the Fe(III) complex remain in the trivalent oxidation state and not be reduced by, for example, peroxide, superoxide, ascorbate, or by glutathione at concentrations present in the extracellular medium of cells such as, for example, mammalian cells (e.g., human cells). Normally, a redox potential more negative than zero mV (<0 mV) versus NHE is sufficient. If the complex were to be reduced to Fe(II) and the Fe(II) complex and the complex has a positive redox potential versus NHE, reactive oxygen species may be produced, for example, as shown in FIG. 8. For example, [Fe(EDTA)]—has a redox potential of approximately 300 mV and produces ROS as shown by the assay in FIG. 11.

mice = assay: In vivo MRI contrast enhancement in mice at 4.7 T; design: species or system mouse
Procedure: The necessary solubility of the complexes depends on their effectiveness in producing contrast. For Fe(III) T1 contrast agents that have good relaxivity, the complexes need 100 μM-2 mM solubility. However, other additives such as human serum albumin (has) or meglumine may be used to increase solubility and/or increase relaxivity. Solubility is generally measured in aqueous solution at near neutral pH (e.g., 6.5 to 7.5, including all 0.1 pH values and ranges therebetween) in 100 mM NaCl with 25 mM carbonate and 0.4 mM phosphate. The dose of the composition to be used will necessarily be dependent upon the needs of the individual to whom the composition of the disclosure is to be administered. These factors include, but are not necessarily limited to the weight, age, sex, and medical history of the individual. Shown in FIGS. 15, 16, 17, 18, 19, 20 are data from in vivo MRI studies done in mice. The contrast agent, Fe(TOB) was injected at 0.20 mL of 6.3 mM Fe-TOB-HSA (10.5 mg of HAS or two equivalents of megluamine). […] In vivo imaging in mice. Efficacy of the Fe(III) complexes for in vivo contrast enhancement was studied on at 4.7 T Bruker preclinical MRI in a mouse model (BABC/cJ, Jackson Laboratory). Sealed phantoms were included for imaging sessions for signal normalization. Prior to administration of contrast agents, scans were acquired to serve as baseline values of enhancement. […] Compounds were injected intravenously via tail vein at a dose of 50 μmol [Fe]/kg and MR data were acquired continuously for up to 1 hour after injection to study distribution and clearance kinetics. Thus, 0.2 mL of a 6 mM stock solution was injected into the mouse or 0.05 mmol/Kg. Additional scans were acquired at 3 and 6 hours post-injection to characterize slower clearance rates by the biliary system. The FDA-approved […] contrast agent gadopentetate dimeglumine (Gd-DTPA, Magnevist®) was injected into a separate cohort of mice at 50 μmol [Gd]/kg for comparison. For SPGR datasets, signal intensities were normalized to the phantoms and signal increase for each organ was measured, as well as an increase in contrast-to-noise ratios as compared to back muscle. Fe(III) concentrations were estimated by calculating the increase in T1 rates and dividing by the compound's relaxivity value as determined in vitro.

[3] = Phantom (in vitro) MR imaging at 4.7 T: T1 and T2 relaxivity; assay type: physicochemical; conditions: neutral pH, Hepes buffer, 37° C.
Procedure: Eq. 2 predicts that greater numbers of bound water molecules and rapid ligand exchange rate constants (short lifetimes for bound water (Tm)) are advantageous. […] There is an analogous relationship for second-sphere waters although the number and residence time is not well defined. The R1 and R2 relaxivity (from T1 and T2 relaxation rate constants at 4.7 T at 37° C. is shown for several complexes in FIG. 13 and FIG. 14. Data on a 3 Tesla MRI scanner are shown in FIG. 21. Table 1 summarizes R1 and R2 relaxivity data for several Fe(III) complexes.
Preparation of Samples for Phantom MR Imaging: Samples for phantom imaging experiments contained 50-500 μM complex, 20 mM HEPES and 100 mM NaCl. […]
Phantom (in vitro) imaging at 4.7 T. MRI acquisitions were performed using a General Electric 4.7T/33 cm horizontal bore magnet (GE NMR instruments, Fremont, CA) incorporating AVANCE digital electronics (Bruker BioSpec platform with ParaVision v 3.0.2 acquisition software, Bruker Medical, Billerica, MA). […] Signal intensities at each repetition time were sampled by taking the mean intensity within regions of interest (ROI's) using commercially available image processing software (Analyze 7.0, AnalyzeDirect, Overland, KS), and R1 and SMAX were calculated by nonlinear fitting of the equation using Matlab's Curve Fitting Toolbox (Matlab 7.0, MathWorks Inc., Natick, MA). […]

brain tumors = assay: MRI scans of mice with brain tumors; assay type: in vivo, mice (C57BL/6NCr); conditions: C57BL/6NCr mice, 0.05 or 0.1 mmol/kg
Procedure: Mice were dosed with Fe(TOB) at 0.05 mmol/kg Fe(TOB) complex or 0.1 mmol/kg Fe(TOB) complex.

[4] = 50 μmol/kg i.v., 4.7 T, compared with the other agents

Benzoate oxidation / ROS production [2]: produces ROS
Structure (SMILES): O=C([O-])CN(CCN(CC(=O)[O-])CC(=O)[O-])CC(=O)[O-].[Fe+3] [[Fe(EDTA)]^−]
redox potential [1]: approximately 300 mV

Structure (SMILES): CNC[C@H](O)[C@@H](O)[C@H](O)[C@H](O)CO.CNC[C@H](O)[C@@H](O)[C@H](O)[C@H](O)CO.O=C([O-])CN(CCN(CC(=O)[O-])CC(=O)O)CCN(CC(=O)[O-])CC(=O)O.[Gd+3] [Gd(DTPA), gadopentetate dimeglumine, reference compound]
T1 contrast in blood (mice; [4]): produces larger contrast in blood

R1 (T1 relaxivity) ([3]; 4.7 Tesla MRI scanner, complex alone): 2.5 mM⁻¹ s⁻¹
R1 with HSA ([3]; 4.7 Tesla, with human serum albumin): 3.4 mM⁻¹ s⁻¹
Elimination by the biliary system (gall bladder enhancement) (mice; 50 μmol/kg, 30′ and 4 h post-injection): strong enhancement of the gall bladder
Removal from the blood (mice; 50 μmol/kg, vs. Gd-DTPA): faster removal from the blood
Uptake in kidneys and liver (mice; 50 μmol/kg, vs. Gd-DTPA): Greater uptake
Structure (SMILES): CC([O-])CN1CCN(Cc2ccccc2)CCN(CC(C)[O-])CC1.[Fe+3] (stereo not drawn) [Fe(TOB)]
T1 contrast in kidneys (mice; [4]): greater contrast than Gd(DTPA) in kidney and liver
T1 contrast in liver (mice; [4]): greater contrast than Gd(DTPA) in kidney and liver
Tissue with highest signal (T1 relaxivity differences in tissue) (mice; 0.20 mL of 6.3 mM Fe-TOB-HSA, 30 minute period): highest signal is observed in the kidney cortex
Contrast of brain tumors (brain tumors): produces contrast of brain tumors in mice
